From patent US20100099687A1, “TADALAFIL SOLID COMPOSITES” (Teva Pharmaceutical Industries Ltd., priority 2006, published 2010)

Tests used:
[1] = organic solvents such as methanol, ethanol, and acetone; 'is understood to be'; cited from earlier work
[2] = cited from earlier work
[3] = Dissolution profile, USP Apparatus 2 (Paddles), conditions of Table 1; format: physicochemical; details: sample containing 20 mg tadalafil, 1000 mL aqueous 0.15 wt % sodium lauryl sulfate and 6 g/L NaH2PO4, pH about 4.5, 37° C., 50 RPM, FIG. 2
Protocol: Dissolution profiles described herein were determined in a dissolution vessel using a USP Apparatus 2 (Paddles) under the conditions described in Table 1. Samples were analyzed on-line by a UV detector.
A sample of the dry powder P-00464, containing 20 mg tadalafil was collected and its dissolution profile determined according to the conditions in Table 1. The dissolution profile of P00464 was compared with the dissolution profiles of commercial versions of tadalafil tablets (Clalis® 20 mg) and active drug substance with a particle size distribution (PSD) such that the value of d(0.9)=˜(about) 50 μm. The results of dissolution testing are illustrated in FIG. 1.
Samples of P-00464 from Example 1 and samples of tadalafil active material with PSD of d(0.9)=˜(about) 4 μm (designated TAPI AK-2186) were prepared for dissolution testing as described below. The dissolution profiles of the samples were determined according to the conditions in Table 1. The samples were analyzed on-line by UV detection, and were compared. FIG. 2 illustrates the averages of the samples for each drug. […]

In the case of `CN1CC(=O)N2[C@H](c3ccc4c(c3)OCO4)c3[nH]c4ccccc4c3C[C@@H]2C1=O` [tadalafil, (6R-trans)-6-(1,3-benzodioxol-5-yl)-2,3,6,7,12,12a-hexahydro-2-methyl-pyrazino[1′,2′:1,6]pyrido[3,4-]indole-1,4-dione], the “solubility in some organic solvents” value [1] is given as “only very slightly soluble”, the water solubility ([2]; 25° C., reported by U.S. Pat. No. 6,841,167) is given as “about 2 μg per milliliter” and the “solubility in water” value ([2]; 'is understood to be') is given as “practically insoluble”.

In the case of `CN1CC(=O)N2[C@H](c3ccc4c(c3)OCO4)c3[nH]c4ccccc4c3C[C@@H]2C1=O`, the “tadalafil dissolved within 40 minutes” value [3] is reported as “less than 70 wt %”.
